The values below come from US9126999B2, “Tetrahydropyrazolopyrimidine compounds” (EISAI R&D MANAGEMENT CO., LTD., priority 2012, dated 2015).

Read-outs that look alike come from different tables or passages of the source.

The target of one test is T1, Human TLR8 (Homo sapiens, UniProt Q9NR97).
T1 construct: host or cells: HEK-293 stably expressing human TLR8, then transfected with pNiFty2(NF-kappaB)-luciferase
T1 sequence (Q9NR97 27-1041): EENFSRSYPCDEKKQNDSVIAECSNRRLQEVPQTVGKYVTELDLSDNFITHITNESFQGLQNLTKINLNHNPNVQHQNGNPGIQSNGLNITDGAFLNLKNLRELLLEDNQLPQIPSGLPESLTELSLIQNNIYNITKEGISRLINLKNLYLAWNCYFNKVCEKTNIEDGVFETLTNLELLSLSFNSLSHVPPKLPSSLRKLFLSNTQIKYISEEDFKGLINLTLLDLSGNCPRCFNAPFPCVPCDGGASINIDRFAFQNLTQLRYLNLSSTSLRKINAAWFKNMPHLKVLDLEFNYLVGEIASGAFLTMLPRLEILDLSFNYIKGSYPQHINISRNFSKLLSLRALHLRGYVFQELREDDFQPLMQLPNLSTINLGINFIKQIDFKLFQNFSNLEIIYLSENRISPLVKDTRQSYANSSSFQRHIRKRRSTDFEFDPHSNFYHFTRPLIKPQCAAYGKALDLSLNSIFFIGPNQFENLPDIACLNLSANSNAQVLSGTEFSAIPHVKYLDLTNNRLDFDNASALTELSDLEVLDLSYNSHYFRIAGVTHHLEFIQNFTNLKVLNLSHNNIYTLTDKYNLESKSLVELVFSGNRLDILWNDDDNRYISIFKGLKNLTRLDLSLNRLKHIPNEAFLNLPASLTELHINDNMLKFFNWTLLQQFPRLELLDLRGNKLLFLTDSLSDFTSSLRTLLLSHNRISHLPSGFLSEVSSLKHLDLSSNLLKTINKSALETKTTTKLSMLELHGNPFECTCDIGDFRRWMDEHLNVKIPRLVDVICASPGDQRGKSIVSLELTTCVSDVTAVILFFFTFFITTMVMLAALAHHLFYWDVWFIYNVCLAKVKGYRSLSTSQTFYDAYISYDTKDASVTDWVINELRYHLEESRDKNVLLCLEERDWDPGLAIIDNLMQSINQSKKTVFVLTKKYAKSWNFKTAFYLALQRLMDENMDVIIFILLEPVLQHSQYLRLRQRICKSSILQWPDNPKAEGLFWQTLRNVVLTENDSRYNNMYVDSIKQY
Briefly: HEK-293 NF-kappaB luciferase reporter assay, CL097 stimulus. Type of test: cell-based. The settings on record: human TLR8 in the HEK-293 assay format; read-out: HEK/TLR8 IC50. The text has this: In vitro pharmacology: HEK-293 cells (ATCC) were engineered to stably express a NF-kappaB transcription factor inducible E-selectin (ELAM-1) luciferase reporter derived from the plasmid pGL3 (Promega) containing base pairs −2241 bp to −254 bp from the promoter of the human E-selectin gene (Accession No. NM_000450). These cells were then subsequently engineered to stably and individually express human TLR4, TLR7 or TLR9 full-length ORF cDNAs. Human TLR4 cDNA (Accession No. NM_138554) was cloned into pcDNA 3.0 expression vector (Invitrogen). TLR4 transfected cells were also engineered to express human MD-2 co-receptor [MD-2 cDNA (Accession No. NM_015364) was cloned into the pEF-BOS vector] and were supplemented with 10 nM soluble CD14 (R&D Systems) in the media to optimize LPS responsiveness. Human TLR9 cDNA (Accession No. NM_017442) was cloned into the pBluescript II KS vector (Agilent). Human TLR7 cDNA (Accession No. NM_016562) was obtained from OriGene. HEK-293 cells stably expressing human TLR8 (Accession No. NM_138636) or mouse TLR7 (Accession No. NM_133211) were purchased from InvivoGen and were then stably transfected with pNiFty2(NF-kappaB)-luciferase reporter plasmid (InvivoGen). Each cell type was plated in Dulbecco's modified Eagle's medium (DMEM) containing 10% fetal bovine serum (FBS) at a density of 2.22×10^5 cells/ml into a 384-well plate and incubated for 2 days at 37° C., 5% CO2. Varying concentrations of antagonist compounds were then added. Cells were then incubated for another 30 minutes before adding the appropriate TLR agonist as follows (final concentrations indicated): lipopolysaccharide (LPS; Sigma) at 10 ng/ml for TLR4, CL097 (InvivoGen) at 3 ug/ml for human TLR7 and TLR8 and mouse TLR7, and CpG-2006-2A [sequence: […] (SEQ ID NO: 1) with phosphorothioate backbone, synthesized by Sigma-Aldrich] at 0.6 uM for TLR9.
On the technique in general: Reporter assays use an easily measured gene product as a stand-in for the process of interest.

The next test deals with T2, Human TLR7/8.
T2 construct: IC50; other: Hu PBMC; ligand RNA-Ig; analyte IL-6; analyte TNFα; ligand R848; IC50 against the RNA-Ig TLR7/8 stimulus; cytokine responses to RNA-Ig complexes in vitro; potency against the RNA-Ig TLR7/8 stimulus versus HCQ
Briefly: Human PBMC cell-based assay, RNA-Ig (SL4-Ig) stimulus, cytokine ELISA. How it is done: (§1) Briefly, 25 ml blood was diluted with 15 ml PBS (without Ca^2+, Mg^2+) in a 50 ml conical tube, and 12 ml Histopaque was underlaid using a spinal needle. Tubes were centrifuged for 45 minutes at 1200 rpm (350×g), and PBMC were collected from the buffy coat. Cells were then washed twice in PBS, and red blood cells were lysed by suspension in 5 ml ammonium chloride solution (1× Red Blood Cell Lysis Buffer, eBioscience) for 5 minutes at room temperature.
Antagonist compounds solubilized and serial diluted in 100% DMSO were added in triplicate to cells to yield a final concentration of 0.1% DMSO (v/v). Hydroxychloroquine (Acros Organics) solubilized and serial diluted in PBS was added in triplicate to cells. […] The resulting “RNA-Ig” stimulus was incubated at room temperature for 15-30 minutes before adding to cells. PBMC were incubated with the various TLR agonists for 20 hours at 37° C., 5% CO2. Cell culture supernatants were collected, and levels of various human cytokines were assessed as indicated by standard ELISA procedure according to the manufacturer's recommended protocol (BD Biosciences, Inc., San Diego, Calif.).

The next test addresses T3, Human TLR9 (Homo sapiens, UniProt Q9NR96).
T3 sequence (Q9NR96 26-1032): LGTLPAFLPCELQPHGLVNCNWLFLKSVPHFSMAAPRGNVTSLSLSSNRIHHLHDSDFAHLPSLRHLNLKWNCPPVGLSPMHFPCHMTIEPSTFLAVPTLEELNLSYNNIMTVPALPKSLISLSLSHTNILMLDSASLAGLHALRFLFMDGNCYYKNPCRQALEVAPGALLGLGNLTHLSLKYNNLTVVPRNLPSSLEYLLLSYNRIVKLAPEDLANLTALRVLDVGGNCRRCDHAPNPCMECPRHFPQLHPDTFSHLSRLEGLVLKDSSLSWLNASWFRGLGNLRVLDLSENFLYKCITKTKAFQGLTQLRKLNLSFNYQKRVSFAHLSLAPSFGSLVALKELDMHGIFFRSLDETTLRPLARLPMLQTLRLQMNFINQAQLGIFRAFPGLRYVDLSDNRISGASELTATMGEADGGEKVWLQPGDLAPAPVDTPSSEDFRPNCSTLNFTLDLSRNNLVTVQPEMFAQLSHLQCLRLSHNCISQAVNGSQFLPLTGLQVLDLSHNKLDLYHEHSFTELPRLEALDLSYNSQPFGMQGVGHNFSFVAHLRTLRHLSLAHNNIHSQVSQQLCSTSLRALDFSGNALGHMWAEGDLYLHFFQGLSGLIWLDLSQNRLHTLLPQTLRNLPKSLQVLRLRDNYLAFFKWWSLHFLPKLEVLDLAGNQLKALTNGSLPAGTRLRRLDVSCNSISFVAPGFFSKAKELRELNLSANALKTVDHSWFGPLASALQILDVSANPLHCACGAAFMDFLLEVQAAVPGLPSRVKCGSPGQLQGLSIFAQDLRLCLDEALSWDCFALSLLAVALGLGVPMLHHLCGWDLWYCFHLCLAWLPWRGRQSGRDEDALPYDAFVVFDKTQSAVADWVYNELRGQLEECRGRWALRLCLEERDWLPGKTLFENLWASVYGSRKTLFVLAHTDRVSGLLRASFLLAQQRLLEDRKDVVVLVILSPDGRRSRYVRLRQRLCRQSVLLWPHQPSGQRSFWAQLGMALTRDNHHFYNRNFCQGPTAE
Briefly: Human PBMC cell-based assay, CpG-ODN stimulus, IL-6 ELISA. Also on record: endogenous in cells; host or cells: primary human PBMC from healthy donor blood. The settings on record: Hu PBMC; ligand CpG-ODN; analyte IL-6. How it is done: as §1, with “Human peripheral blood mononuclear cells (PBMC) were isolated from freshly-drawn heparinized (10 USP units/ml, Hospira, Lakeforest, Ill.) healthy donor whole blood by density gradient (Histopaque® 1077, Sigma, Inc., St. Louis, Mo.). Briefly,” for “Briefly,”, “temperature. […]” for “temperature.”
(§2) Antagonist compounds solubilized and serial diluted in 100% DMSO were added in triplicate to cells to yield a final concentration of 0.1% DMSO (v/v). […] Cell culture supernatants were collected, and levels of various human cytokines were assessed as indicated by standard ELISA procedure according to the manufacturer's recommended protocol (BD Biosciences, Inc., San Diego, Calif.).
On the technique in general: ELISA stands for enzyme-linked immunosorbent assay.

The target in another test is Human TLR4 (Homo sapiens, UniProt O00206). The test is described as follows: Human PBMC cell-based assay, LPS stimulus, IL-6 ELISA. The settings on record: Hu PBMC; ligand LPS; analyte IL-6. Further details: endogenous in cells; host or cells: primary human PBMC from healthy donor blood. How it is done: as §1, with “Human peripheral blood mononuclear cells (PBMC) were isolated from freshly-drawn heparinized (10 USP units/ml, Hospira, Lakeforest, Ill.) healthy donor whole blood by density gradient (Histopaque® 1077, Sigma, Inc., St. Louis, Mo.). Briefly,” for “Briefly,”, “temperature. […]” for “temperature.”
Sequence of Human TLR4 (O00206 24-839): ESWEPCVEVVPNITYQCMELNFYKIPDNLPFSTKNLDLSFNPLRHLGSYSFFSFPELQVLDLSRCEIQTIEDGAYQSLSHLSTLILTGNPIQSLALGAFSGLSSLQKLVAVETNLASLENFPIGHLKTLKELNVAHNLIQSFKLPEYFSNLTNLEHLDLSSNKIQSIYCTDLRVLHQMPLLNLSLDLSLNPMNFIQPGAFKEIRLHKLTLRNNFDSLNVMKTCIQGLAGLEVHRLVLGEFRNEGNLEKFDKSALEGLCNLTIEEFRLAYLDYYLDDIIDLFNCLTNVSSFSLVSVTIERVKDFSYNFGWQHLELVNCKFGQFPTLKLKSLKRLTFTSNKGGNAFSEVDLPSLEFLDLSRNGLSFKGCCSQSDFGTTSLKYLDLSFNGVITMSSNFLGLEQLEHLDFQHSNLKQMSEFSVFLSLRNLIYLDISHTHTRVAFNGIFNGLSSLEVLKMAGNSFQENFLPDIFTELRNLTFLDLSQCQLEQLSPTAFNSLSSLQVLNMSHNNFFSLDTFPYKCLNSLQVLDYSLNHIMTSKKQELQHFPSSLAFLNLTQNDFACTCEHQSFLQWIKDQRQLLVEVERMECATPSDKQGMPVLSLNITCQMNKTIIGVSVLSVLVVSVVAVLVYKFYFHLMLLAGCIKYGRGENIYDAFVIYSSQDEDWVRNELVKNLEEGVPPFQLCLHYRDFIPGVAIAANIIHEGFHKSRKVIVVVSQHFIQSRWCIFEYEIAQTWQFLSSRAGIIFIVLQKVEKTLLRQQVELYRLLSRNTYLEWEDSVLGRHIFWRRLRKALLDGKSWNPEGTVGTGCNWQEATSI
Sequence of Human TLR4 (Q9Y6Y9 19-160 partner): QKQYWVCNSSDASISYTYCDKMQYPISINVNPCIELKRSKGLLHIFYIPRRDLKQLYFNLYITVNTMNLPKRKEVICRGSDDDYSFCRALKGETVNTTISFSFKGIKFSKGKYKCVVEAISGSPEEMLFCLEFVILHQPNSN
as §2

Where [1] appears, read: Human PBMC IL-6 Inhibition (SL4-Ig Ligand), read-out: Human PBMC IC50.

With `COc1cc(-c2cc3n(n2)C(C(F)(F)F)CC(c2ccc(OC)c(OC)c2)N3)ccn1` (racemic) [ER-886434], the IC50 on Human TLR8 came to 300 nM; with Human TLR7/8 (setting [1]) it was 414 nM.

For the compound `Cc1nn(C)cc1C1CC(C(F)(F)F)n2nc(-c3ccc4c(cnn4C)c3C)cc2N1` (stereo not drawn) [ER-892900], the IC50 came to 330 nM on Human TLR8 and 744 nM in the test with Human TLR7/8 (setting [1]).

Take `COc1ccc([C@H]2C[C@@H](C(F)(F)F)n3nc(-c4ccc(C(=O)N5CCNCC5)cc4)cc3N2)cc1OC` [ER-892924]: the IC50 at Human TLR8 amounted to 220 nM; in the test on Human TLR7/8 (setting [1]) it was 160 nM.

`Cc1nn(C)cc1[C@H]1C[C@@H](C(F)(F)F)n2nc(-c3ccc4c(cnn4C)c3C)cc2N1` [ER-893987]: the IC50 on Human TLR8 is 220 nM; in the test with Human TLR7/8 (setting [1]) it was 2110 nM.

As to `CCN(CCO)CCCC(C)Nc1ccnc2cc(Cl)ccc12` (stereo not drawn) [HCQ, Hydroxychloroquine, reference compound], the IC50 in the test on Human TLR7/8 (Hu PBMC, ligand RNA-Ig, analyte IL-6, read-out: IC50) is 1000 to 2000 nM; in the test on Human TLR7/8 (read-out: IC50 against the RNA-Ig TLR7/8 stimulus) it was around 1500 nM; against Human TLR9, 150 to 300 nM; on Human TLR4 it was above 10000 nM.
